Source: patent US20240425479A1, “HALO-SUBSTITUTED AMINO AZA-HETEROARYL COMPOUNDS AS INHIBITORS OF THE HAEMATOPOIETIC PROGENITOR KINASE 1 (HPK1)” (priority 2021, published 2024)

Target: T1, Recombinant (1-346) HPK1 (h) (Homo sapiens, UniProt Q92918)
T1 construct: Recombinant (1-346) HPK1 (h) is incubated with 8 mM MOPS pH 7.0
T1 sequence (Q92918 1-346): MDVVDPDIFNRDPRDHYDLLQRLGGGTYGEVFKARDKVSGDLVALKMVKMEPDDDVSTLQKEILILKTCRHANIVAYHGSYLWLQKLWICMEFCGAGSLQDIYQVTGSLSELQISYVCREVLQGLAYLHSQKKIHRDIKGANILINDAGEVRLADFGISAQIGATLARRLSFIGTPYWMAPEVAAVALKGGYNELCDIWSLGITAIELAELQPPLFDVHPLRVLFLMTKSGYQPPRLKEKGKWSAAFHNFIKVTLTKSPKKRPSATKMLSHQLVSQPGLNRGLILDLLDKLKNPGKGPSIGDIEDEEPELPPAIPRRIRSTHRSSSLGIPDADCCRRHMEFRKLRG
Test: HPK1 human STE kinase enzymatic radiometric assay
Assay type: biochemical
Conditions: read-out: HPK1 IC50 nM Range
Method in brief: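 Compounds in 3-fold, 9-point serial dilution; kinase (residues 1-346) phosphorylates myelin basic protein (0.33 mg/mL) using [gamma-33P]-ATP at pH 7.0 (MOPS, EDTA, Mg acetate) for 40 min, room temperature. Acid-quenched mixture filtered onto P30 mats; incorporated radioactivity read by scintillation counting.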

Compound	IC50 [nM]
CN(C)Cc1cc(-c2nc(-c3cc(F)c4c(c3)CCNC4=O)c(N)nc2F)ccc1OCC1CCOCC1 [Example I-180, 6-(3-amino-6-(3-((dimethylamino)methyl)-4-((tetrahydro-2H-pyran-4-yl)methoxy)phenyl)-5-fluoropyrazin-2-yl)-8-fluoro-3,4-dihydroisoquinolin-1(2H)-one]	0.1 to 10
Cc1c[nH]c(=O)c2ccc(-c3nc(-c4ccc(C5CCOCC5)cc4)c(F)nc3N)cc12 [Example I-181, 6-(3-amino-5-fluoro-6-(4-(tetrahydro-2H-pyran-4-yl)phenyl)pyrazin-2-yl)-4-methylisoquinolin-1(2H)-one]	0.1 to 10
Cc1cc2cc(-c3nc(-c4ccc(N5CCN(C(C)C)CC5)cc4)c(F)nc3N)c(F)cc2c(=O)[nH]1 [Example I-182, 6-(3-amino-5-fluoro-6-(4-(4-isopropylpiperazin-1-yl)phenyl)pyrazin-2-yl)-7-fluoro-3-methylisoquinolin-1(2H)-one]	0.1 to 10
Cc1cc2cc(-c3nc(-c4ccc(C5CCOCC5)c(CN(C)C)c4)c(F)nc3N)c(F)cc2c(=O)[nH]1 [Example I-184, 6-(3-amino-6-(3-((dimethylamino)methyl)-4-(tetrahydro-2H-pyran-4-yl)phenyl)-5-fluoropyrazin-2-yl)-7-fluoro-3-methylisoquinolin-1(2H)-one]	0.1 to 10
COC1CN(Cc2cc(-c3nc(-c4cc(F)c5c(c4)CCNC5=O)c(N)nc3F)ccc2C2CCOCC2)C1 [Example I-191, 6-(3-amino-5-fluoro-6-(3-((3-methoxyazetidin-1-yl)methyl)-4-(tetrahydro-2H-pyran-4-yl)phenyl)pyrazin-2-yl)-8-fluoro-3,4-dihydroisoquinolin-1(2H)-one]	0.1 to 10
COC1CN(Cc2cc(-c3nc(-c4ccc5c(c4)CCNC5=O)c(N)nc3F)ccc2C2CCOCC2)C1 [Example I-193, 6-(3-amino-5-fluoro-6-(3-((3-methoxyazetidin-1-yl)methyl)-4-(tetrahydro-2H-pyran-4-yl)phenyl)pyrazin-2-yl)-3,4-dihydroisoquinolin-1(2H)-one]	0.1 to 10
Cc1nc2cc(-c3nc(-c4ccc(N5C[C@@H](C)O[C@@H](C)C5)c(CN(C)C)c4)c(F)nc3N)ccc2c(=O)[nH]1 [Example I-194, 7-(3-amino-6-(3-((dimethylamino)methyl)-4-((2R,6S)-2,6-dimethylmorpholino)phenyl)-5-fluoropyrazin-2-yl)-2-methylquinazolin-4(3H)-one]	11 to 100
CC1NC(=O)c2c(F)cc(-c3nc(-c4ccc([C@]56C[C@H]5CN(C5CCC5)C6)cc4)c(F)nc3N)cc2C1(F)F (stereo partly drawn) [Example I-195, 6-(3-amino-6-(4-((1S,5R)-3-cyclobutyl-3-azabicyclo[3.1.0]hexan-1-yl)phenyl)-5-fluoropyrazin-2-yl)-4,4,8-trifluoro-3-methyl-3,4-dihydroisoquinolin-1(2H)-one]	11 to 100
Cc1nc2cc(-c3nc(-c4ccc(N5C[C@@H](C)O[C@@H](C)C5)c(CN(C)C)c4)c(F)nc3N)cc(F)c2c(=O)[nH]1 [Example I-196, 7-(3-amino-6-(3-((dimethylamino)methyl)-4-((2R,6S)-2,6-dimethylmorpholino)phenyl)-5-fluoropyrazin-2-yl)-5-fluoro-2-methylquinazolin-4(3H)-one]	11 to 100
C[C@@H]1CN(c2ccc(-c3nc(-c4cc(F)c5c(c4)CCNC5=O)c(N)nc3F)cc2CN(C)C)C[C@H](C)O1 [Example I-197, 6-(3-amino-6-(3-((dimethylamino)methyl)-4-((2R,6S)-2,6-dimethylmorpholino)phenyl)-5-fluoropyrazin-2-yl)-8-fluoro-3,4-dihydroisoquinolin-1(2H)-one]	0.1 to 10
C[C@@H]1CN(c2ccc(-c3nc(-c4ccc5c(c4)CCNC5=O)c(N)nc3F)cc2CN(C)C)C[C@H](C)O1 [Example I-198, 6-(3-amino-6-(3-((dimethylamino)methyl)-4-((2R,6S)-2,6-dimethylmorpholino)phenyl)-5-fluoropyrazin-2-yl)-3,4-dihydroisoquinolin-1(2H)-one]	0.1 to 10
Nc1nc(F)c(-c2ccc(C3CCOCC3)c(CN3CCC3)c2)nc1-c1ccc2c(=O)[nH]cc(F)c2c1 [Example I-204, 6-(3-amino-6-(3-(azetidin-1-ylmethyl)-4-(tetrahydro-2H-pyran-4-yl)phenyl)-5-fluoropyrazin-2-yl)-4-fluoroisoquinolin-1(2H)-one]	0.1 to 10
Cc1c[nH]c(=O)c2ccc(-c3nc(-c4ccc(C5CCOCC5)c(CN5CCCC5)c4)c(F)nc3N)cc12 [Example I-205, 6-(3-amino-5-fluoro-6-(3-(pyrrolidin-1-ylmethyl)-4-(tetrahydro-2H-pyran-4-yl)phenyl)pyrazin-2-yl)-4-methylisoquinolin-1(2H)-one]	0.1 to 10
Cc1c[nH]c(=O)c2ccc(-c3nc(-c4ccc(C5CCOCC5)c(CN5CCC5)c4)c(F)nc3N)cc12 [Example I-206, 6-(3-amino-6-(3-(azetidin-1-ylmethyl)-4-(tetrahydro-2H-pyran-4-yl)phenyl)-5-fluoropyrazin-2-yl)-4-methylisoquinolin-1(2H)-one]	0.1 to 10

More lines, now with the values ahead:

IC50 [nM]	Compound
0.1 to 10	Cc1cc2cc(-c3nc(-c4ccc(N5CCOCC5)c(CN(C)C)c4)c(F)nc3N)c(F)cc2c(=O)[nH]1 [Example I-183, 6-(3-amino-6-(3-((dimethylamino)methyl)-4-morpholinophenyl)-5-fluoropyrazin-2-yl)-7-fluoro-3-methylisoquinolin-1(2H)-one]
11 to 100	Nc1nc(F)c(-c2ccc(N3CCOCC3)c(CN3CCCCC3)c2)nc1-c1ccc2c(c1)CCNC2=O [Example I-185, 6-(3-amino-5-fluoro-6-(4-morpholino-3-(piperidin-1-ylmethyl)phenyl)pyrazin-2-yl)-3,4-dihydroisoquinolin-1(2H)-one]
11 to 100	Nc1nc(F)c(-c2ccc(N3CCOCC3)c(CN3CCCCC3)c2)nc1-c1cc2c(cc1F)C(=O)NCC2 [Example I-186, 6-(3-amino-5-fluoro-6-(4-morpholino-3-(piperidin-1-ylmethyl)phenyl)pyrazin-2-yl)-7-fluoro-3,4-dihydroisoquinolin-1(2H)-one]
11 to 100	Nc1nc(F)c(-c2ccc(N3CCOCC3)c(CN3CCCCC3)c2)nc1-c1cc(F)c2c(c1)CCNC2=O [Example I-187, 6-(3-amino-5-fluoro-6-(4-morpholino-3-(piperidin-1-ylmethyl)phenyl)pyrazin-2-yl)-8-fluoro-3,4-dihydroisoquinolin-1(2H)-one]
0.1 to 10	COC1CN(Cc2cc(-c3nc(-c4ccc5c(c4)CCNC5=O)c(N)nc3F)ccc2N2CCOCC2)C1 [Example I-188, 6-(3-amino-5-fluoro-6-(3-((3-methoxyazetidin-1-yl)methyl)-4-morpholinophenyl)pyrazin-2-yl)-3,4-dihydroisoquinolin-1(2H)-one]
0.1 to 10	COC1CN(Cc2cc(-c3nc(-c4cc5c(cc4F)C(=O)NCC5)c(N)nc3F)ccc2N2CCOCC2)C1 [Example I-189, 6-(3-amino-5-fluoro-6-(3-((3-methoxyazetidin-1-yl)methyl)-4-morpholinophenyl)pyrazin-2-yl)-7-fluoro-3,4-dihydroisoquinolin-1(2H)-one]
0.1 to 10	COC1CN(Cc2cc(-c3nc(-c4cc5c(cc4F)C(=O)NCC5)c(N)nc3F)ccc2C2CCOCC2)C1 [Example I-190, 6-(3-amino-5-fluoro-6-(3-((3-methoxyazetidin-1-yl)methyl)-4-(tetrahydro-2H-pyran-4-yl)phenyl)pyrazin-2-yl)-7-fluoro-3,4-dihydroisoquinolin-1(2H)-one]
0.1 to 10	COC1CN(Cc2cc(-c3nc(-c4cc(F)c5c(c4)CCNC5=O)c(N)nc3F)ccc2N2CCOCC2)C1 [Example I-192, 6-(3-amino-5-fluoro-6-(3-((3-methoxyazetidin-1-yl)methyl)-4-morpholinophenyl)pyrazin-2-yl)-8-fluoro-3,4-dihydroisoquinolin-1(2H)-one]
0.1 to 10	Nc1nc(F)c(-c2ccc(N3CCOCC3)c(CN3CCC3)c2)nc1-c1ccc2c(=O)[nH]cc(F)c2c1 [Example I-199, 6-(3-amino-6-(3-(azetidin-1-ylmethyl)-4-morpholinophenyl)-5-fluoropyrazin-2-yl)-4-fluoroisoquinolin-1(2H)-one]
0.1 to 10	Nc1nc(F)c(-c2ccc(N3CCOCC3)c(CN3CCCC3)c2)nc1-c1ccc2c(=O)[nH]cc(F)c2c1 [Example I-200, 6-(3-amino-5-fluoro-6-(4-morpholino-3-(pyrrolidin-1-ylmethyl)phenyl)pyrazin-2-yl)-4-fluoroisoquinolin-1(2H)-one]
11 to 100	Nc1nc(F)c(-c2ccc(N3CCOCC3)cn2)nc1-c1ccc2c(c1)CCNC2=O [Example I-201, 6-(3-amino-5-fluoro-6-(5-morpholinopyridin-2-yl)pyrazin-2-yl)-3,4-dihydroisoquinolin-1(2H)-one]
0.1 to 10	Cc1c[nH]c(=O)c2ccc(-c3nc(-c4ccc(N5CCOCC5)c(CN5CCC5)c4)c(F)nc3N)cc12 [Example I-202, 6-(3-amino-6-(3-(azetidin-1-ylmethyl)-4-morpholinophenyl)-5-fluoropyrazin-2-yl)-4-methylisoquinolin-1(2H)-one]
0.1 to 10	Cc1c[nH]c(=O)c2ccc(-c3nc(-c4ccc(N5CCOCC5)c(CN5CCCC5)c4)c(F)nc3N)cc12 [Example I-203, 6-(3-amino-5-fluoro-6-(4-morpholino-3-(pyrrolidin-1-ylmethyl)phenyl)pyrazin-2-yl)-4-methylisoquinolin-1(2H)-one]
